Assay results taken from ChEMBL document CHEMBL4507291 (2021).

Columns and labels:
[1] = biological target: T1, 5-hydroxytryptamine receptor 2C (Homo sapiens) (UniProt P28335); settings: Compound concentration 10.0 uM
T1 sequence (whole entry): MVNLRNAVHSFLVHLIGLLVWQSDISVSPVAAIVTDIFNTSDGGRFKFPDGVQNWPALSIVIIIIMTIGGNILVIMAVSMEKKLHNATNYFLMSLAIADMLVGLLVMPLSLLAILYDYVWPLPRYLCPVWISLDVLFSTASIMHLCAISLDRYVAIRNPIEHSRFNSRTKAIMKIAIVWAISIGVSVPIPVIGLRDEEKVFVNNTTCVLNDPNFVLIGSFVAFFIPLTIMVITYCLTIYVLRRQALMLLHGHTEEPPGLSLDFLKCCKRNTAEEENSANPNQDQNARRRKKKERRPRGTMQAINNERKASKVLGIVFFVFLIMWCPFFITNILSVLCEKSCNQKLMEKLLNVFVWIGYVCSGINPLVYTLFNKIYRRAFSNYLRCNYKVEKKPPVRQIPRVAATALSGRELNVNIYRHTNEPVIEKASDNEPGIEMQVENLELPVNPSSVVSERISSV

[2] = biological target: Muscarinic acetylcholine receptor M3 (Homo sapiens) (UniProt P20309); settings: Compound concentration 10.0 uM
[3] = biological target: Tyrosine-protein kinase Blk (Homo sapiens) (UniProt P51451); test: BLK Kinase screen; settings: Compound concentration 1.0 uM
[4] = biological target: T2, Tyrosine-protein kinase ITK/TSK (Homo sapiens) (UniProt Q08881); test: ITK Kinase screen; settings: Compound concentration 1.0 uM
T2 sequence (whole entry): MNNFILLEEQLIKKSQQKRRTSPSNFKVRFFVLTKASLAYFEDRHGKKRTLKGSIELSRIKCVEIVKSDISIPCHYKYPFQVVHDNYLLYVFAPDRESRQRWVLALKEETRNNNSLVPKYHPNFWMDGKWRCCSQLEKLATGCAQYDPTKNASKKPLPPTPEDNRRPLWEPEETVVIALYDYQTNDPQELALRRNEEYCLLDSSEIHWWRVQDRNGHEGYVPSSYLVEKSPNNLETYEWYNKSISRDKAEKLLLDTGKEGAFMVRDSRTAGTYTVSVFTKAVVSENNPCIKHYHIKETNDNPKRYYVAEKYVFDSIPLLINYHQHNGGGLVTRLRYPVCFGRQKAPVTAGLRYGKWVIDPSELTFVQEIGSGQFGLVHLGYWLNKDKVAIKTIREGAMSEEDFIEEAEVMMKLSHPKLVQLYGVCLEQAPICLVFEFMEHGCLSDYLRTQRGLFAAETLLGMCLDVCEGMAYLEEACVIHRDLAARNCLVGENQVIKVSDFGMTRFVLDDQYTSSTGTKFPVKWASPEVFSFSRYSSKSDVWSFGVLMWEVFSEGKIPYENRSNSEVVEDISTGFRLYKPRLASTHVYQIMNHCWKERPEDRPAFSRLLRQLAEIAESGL

[5] = tested on: RAF proto-oncogene serine/threonine-protein kinase (Homo sapiens), P04049 [Y340D,Y341D]; test: RAF1 (cRAF) Y340D Y341D Kinase screen; settings: Compound concentration 1.0 uM
[6] = biological target: Melanocyte-stimulating hormone receptor (Homo sapiens) (UniProt Q01726); test: Melanocortin MC1 Eurofins-Panlabs radioligand binding assay; settings: Compound concentration 10.0 uM
[7] = biological target: D(1A) dopamine receptor (Homo sapiens) (UniProt P21728); settings: Compound concentration 10.0 uM
[8] = tested on: Epidermal growth factor receptor (Homo sapiens), P00533 [T790M]; test: EGFR (ErbB1) T790M Kinase screen; settings: Compound concentration 1.0 uM
[9] = biological target: Adrenomedullin receptor AM1; CALCRL/RAMP2 (Homo sapiens) (UniProt O60895+Q16602); test: Adrenomedullin AM1 Eurofins-Panlabs radioligand binding assay; type: protein-complex assay; settings: Compound concentration 10.0 uM
[10] = biological target: Myosin light chain kinase, smooth muscle (Homo sapiens) (UniProt Q15746); test: MYLK (MLCK) Kinase screen; settings: Compound concentration 1.0 uM
[11] = biological target: Platelet-derived growth factor receptor beta (Homo sapiens) (UniProt P09619); test: PDGFRB (PDGFR beta) Kinase screen; settings: Compound concentration 1.0 uM
[12] = biological target: Neurotensin receptor type 1 (Homo sapiens) (UniProt P30989); test: Neurotensin NT1 Eurofins-Panlabs radioligand binding assay; parameters: ligand concentration 0.02 nM, non-specific ligand with concentration 1 µM Neurotensin, incubation time 45 min, incubation temperature 25 °C; settings: Compound concentration 10.0 uM
[13] = biological target: C-X-C chemokine receptor type 2 (Homo sapiens) (UniProt P25025); test: Inhibition of Chemokine CXCR2 (IL-8RB) at 10 µM in the Eurofins-Panlabs radioligand binding assay (Eurofins_assay_244500); settings: Compound concentration 10.0 uM
[14] = biological target: T3, Tyrosine-protein kinase JAK3 (Homo sapiens) (UniProt P52333); test: JAK3 Kinase screen; settings: Compound concentration 1.0 uM
T3 sequence (whole entry): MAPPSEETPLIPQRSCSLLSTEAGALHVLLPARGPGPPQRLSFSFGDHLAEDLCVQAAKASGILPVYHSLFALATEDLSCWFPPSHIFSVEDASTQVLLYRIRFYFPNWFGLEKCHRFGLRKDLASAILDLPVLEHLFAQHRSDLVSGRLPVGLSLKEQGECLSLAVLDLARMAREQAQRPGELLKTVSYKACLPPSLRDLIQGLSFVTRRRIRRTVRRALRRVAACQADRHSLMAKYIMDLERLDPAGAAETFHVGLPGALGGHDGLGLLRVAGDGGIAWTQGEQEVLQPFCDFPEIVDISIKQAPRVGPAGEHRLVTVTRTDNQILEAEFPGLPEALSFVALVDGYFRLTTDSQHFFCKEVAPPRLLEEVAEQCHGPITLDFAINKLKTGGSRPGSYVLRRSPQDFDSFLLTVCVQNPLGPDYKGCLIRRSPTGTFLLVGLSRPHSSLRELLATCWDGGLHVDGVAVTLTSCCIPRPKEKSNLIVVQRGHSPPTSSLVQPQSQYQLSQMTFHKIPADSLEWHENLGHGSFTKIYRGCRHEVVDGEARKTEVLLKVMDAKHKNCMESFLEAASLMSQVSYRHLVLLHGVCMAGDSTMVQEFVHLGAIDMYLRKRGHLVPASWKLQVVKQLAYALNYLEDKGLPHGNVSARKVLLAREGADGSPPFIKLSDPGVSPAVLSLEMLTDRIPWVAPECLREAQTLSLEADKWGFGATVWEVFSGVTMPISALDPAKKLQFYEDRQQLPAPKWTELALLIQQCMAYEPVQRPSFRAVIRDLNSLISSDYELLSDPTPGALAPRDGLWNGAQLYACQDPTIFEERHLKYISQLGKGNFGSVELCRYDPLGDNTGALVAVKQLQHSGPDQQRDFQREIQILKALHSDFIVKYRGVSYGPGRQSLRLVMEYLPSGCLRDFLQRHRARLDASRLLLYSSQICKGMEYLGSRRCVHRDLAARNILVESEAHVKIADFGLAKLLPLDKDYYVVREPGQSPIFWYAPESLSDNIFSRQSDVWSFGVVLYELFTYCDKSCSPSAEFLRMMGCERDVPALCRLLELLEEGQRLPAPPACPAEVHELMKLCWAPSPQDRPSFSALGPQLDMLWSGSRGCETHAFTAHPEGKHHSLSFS

Measured: inhibition

Melanocyte-stimulating hormone receptor (Homo sapiens), sequence (Q01726 whole entry, looked up): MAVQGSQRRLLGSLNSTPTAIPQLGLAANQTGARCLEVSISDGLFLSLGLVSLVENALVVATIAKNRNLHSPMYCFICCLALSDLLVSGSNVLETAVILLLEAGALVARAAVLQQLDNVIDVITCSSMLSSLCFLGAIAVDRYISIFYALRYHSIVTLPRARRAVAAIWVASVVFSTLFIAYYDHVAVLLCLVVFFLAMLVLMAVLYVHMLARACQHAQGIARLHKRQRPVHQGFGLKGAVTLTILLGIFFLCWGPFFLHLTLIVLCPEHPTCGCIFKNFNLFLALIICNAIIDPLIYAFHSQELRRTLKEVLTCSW
RAF proto-oncogene serine/threonine-protein kinase (Homo sapiens), P04049 [Y340D,Y341D], sequence (P04049 whole entry Y340D/Y341D): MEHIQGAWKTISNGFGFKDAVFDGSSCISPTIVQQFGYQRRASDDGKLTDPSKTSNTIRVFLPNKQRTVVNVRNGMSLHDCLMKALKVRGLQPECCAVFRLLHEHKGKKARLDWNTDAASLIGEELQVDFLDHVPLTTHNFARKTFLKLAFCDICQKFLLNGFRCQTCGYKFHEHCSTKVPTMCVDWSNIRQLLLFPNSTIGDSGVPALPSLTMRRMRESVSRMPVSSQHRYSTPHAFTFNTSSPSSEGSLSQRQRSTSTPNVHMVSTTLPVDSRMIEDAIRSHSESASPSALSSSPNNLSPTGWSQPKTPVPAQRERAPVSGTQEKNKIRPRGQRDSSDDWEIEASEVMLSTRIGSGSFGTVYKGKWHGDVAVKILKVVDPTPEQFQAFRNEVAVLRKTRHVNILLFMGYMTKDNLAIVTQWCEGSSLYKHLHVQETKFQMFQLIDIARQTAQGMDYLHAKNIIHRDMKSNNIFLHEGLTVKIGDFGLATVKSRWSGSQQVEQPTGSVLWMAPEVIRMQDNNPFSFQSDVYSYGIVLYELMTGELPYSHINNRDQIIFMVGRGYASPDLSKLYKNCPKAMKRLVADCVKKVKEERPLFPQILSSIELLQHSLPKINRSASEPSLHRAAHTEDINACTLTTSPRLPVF
C-X-C chemokine receptor type 2 (Homo sapiens), sequence (P25025 whole entry): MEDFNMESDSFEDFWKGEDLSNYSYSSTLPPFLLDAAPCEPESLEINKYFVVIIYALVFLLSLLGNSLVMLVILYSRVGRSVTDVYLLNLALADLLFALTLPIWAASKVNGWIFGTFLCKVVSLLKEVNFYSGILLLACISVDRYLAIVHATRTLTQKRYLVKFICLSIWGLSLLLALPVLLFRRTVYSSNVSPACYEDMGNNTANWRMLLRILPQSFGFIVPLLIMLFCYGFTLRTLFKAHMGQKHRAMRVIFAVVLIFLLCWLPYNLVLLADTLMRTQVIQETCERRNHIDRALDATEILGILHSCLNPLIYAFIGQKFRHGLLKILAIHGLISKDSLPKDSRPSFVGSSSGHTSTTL
D(1A) dopamine receptor (Homo sapiens), sequence (P21728 whole entry): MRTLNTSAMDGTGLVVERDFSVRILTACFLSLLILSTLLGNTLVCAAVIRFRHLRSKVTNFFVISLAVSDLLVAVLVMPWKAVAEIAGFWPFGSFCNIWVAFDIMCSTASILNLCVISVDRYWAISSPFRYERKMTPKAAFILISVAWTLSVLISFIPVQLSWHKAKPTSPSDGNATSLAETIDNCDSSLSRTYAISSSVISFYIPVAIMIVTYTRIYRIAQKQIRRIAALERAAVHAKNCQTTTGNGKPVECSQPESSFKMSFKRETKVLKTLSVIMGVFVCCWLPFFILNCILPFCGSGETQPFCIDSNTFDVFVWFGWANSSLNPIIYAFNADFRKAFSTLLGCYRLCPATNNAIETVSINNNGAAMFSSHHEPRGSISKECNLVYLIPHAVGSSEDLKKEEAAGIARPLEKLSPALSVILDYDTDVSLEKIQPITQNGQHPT
Platelet-derived growth factor receptor beta (Homo sapiens), sequence (P09619 whole entry): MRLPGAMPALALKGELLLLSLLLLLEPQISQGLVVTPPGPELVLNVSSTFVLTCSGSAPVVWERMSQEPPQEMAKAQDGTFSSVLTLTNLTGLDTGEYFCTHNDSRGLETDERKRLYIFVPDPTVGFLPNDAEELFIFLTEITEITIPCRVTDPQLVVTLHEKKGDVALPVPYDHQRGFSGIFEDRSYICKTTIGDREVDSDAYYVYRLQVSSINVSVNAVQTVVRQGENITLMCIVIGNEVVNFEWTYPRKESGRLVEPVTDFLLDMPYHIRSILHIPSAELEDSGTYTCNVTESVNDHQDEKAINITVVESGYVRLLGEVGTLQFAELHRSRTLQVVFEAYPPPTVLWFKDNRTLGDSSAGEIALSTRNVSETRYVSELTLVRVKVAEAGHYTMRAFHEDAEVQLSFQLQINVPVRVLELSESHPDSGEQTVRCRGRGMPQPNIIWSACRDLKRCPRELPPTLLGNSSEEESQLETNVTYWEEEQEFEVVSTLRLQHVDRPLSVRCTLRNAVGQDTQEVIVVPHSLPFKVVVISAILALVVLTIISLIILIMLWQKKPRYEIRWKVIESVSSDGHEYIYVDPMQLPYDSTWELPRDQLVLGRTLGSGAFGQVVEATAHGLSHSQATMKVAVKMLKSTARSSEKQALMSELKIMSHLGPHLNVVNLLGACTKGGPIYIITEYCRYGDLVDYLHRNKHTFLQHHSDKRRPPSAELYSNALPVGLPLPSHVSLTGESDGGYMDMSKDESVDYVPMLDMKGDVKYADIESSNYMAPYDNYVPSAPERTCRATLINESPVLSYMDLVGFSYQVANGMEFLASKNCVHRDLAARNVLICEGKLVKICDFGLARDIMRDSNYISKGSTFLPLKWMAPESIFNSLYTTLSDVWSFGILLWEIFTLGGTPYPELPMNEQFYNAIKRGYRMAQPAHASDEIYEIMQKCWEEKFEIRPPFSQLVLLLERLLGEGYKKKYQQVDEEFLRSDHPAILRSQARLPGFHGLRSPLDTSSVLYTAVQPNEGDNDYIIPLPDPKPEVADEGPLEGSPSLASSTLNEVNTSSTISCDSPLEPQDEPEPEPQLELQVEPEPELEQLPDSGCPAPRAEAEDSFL
Epidermal growth factor receptor (Homo sapiens), P00533 [T790M], sequence (P00533 whole entry T790M): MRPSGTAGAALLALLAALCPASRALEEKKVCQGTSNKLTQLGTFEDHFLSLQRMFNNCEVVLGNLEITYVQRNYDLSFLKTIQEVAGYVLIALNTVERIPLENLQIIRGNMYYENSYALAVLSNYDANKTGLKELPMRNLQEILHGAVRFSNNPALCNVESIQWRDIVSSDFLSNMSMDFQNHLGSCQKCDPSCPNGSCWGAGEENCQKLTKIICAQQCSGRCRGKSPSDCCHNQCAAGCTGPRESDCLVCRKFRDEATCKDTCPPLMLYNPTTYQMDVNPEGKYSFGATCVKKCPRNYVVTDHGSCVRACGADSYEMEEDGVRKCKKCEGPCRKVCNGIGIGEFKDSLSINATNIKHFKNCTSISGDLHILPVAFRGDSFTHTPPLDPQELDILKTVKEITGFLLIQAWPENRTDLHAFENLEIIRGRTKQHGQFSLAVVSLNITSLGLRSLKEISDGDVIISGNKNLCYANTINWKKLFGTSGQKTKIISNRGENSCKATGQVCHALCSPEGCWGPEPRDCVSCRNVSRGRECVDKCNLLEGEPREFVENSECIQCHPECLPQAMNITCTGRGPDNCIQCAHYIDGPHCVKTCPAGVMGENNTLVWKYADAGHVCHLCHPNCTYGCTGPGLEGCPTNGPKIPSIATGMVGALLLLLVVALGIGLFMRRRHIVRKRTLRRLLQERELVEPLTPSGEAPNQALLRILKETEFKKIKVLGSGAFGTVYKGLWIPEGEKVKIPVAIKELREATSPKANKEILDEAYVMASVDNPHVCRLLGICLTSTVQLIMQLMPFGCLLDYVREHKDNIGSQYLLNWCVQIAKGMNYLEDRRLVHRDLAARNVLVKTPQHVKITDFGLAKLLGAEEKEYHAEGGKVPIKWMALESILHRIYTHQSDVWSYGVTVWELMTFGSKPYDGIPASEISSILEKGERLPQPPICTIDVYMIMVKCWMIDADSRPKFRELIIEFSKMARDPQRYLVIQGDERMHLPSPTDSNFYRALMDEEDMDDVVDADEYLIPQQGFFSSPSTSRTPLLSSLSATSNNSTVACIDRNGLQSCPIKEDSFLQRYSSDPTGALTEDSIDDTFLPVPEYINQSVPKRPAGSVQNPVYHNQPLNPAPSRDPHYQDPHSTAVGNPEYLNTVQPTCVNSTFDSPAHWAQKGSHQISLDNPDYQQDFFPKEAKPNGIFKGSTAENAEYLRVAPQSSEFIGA
Neurotensin receptor type 1 (Homo sapiens), sequence (P30989 whole entry): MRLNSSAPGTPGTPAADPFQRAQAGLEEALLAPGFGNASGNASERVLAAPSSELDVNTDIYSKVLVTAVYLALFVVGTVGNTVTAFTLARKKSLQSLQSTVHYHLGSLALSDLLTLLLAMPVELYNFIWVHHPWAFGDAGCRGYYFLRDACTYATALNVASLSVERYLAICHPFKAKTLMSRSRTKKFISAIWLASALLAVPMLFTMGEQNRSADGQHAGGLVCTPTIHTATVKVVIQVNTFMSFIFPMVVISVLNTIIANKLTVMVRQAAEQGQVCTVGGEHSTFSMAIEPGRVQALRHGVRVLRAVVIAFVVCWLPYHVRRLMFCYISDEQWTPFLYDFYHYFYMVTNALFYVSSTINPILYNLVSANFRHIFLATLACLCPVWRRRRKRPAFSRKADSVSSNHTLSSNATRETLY
Tyrosine-protein kinase Blk (Homo sapiens), sequence (P51451 2-505 limits assumed): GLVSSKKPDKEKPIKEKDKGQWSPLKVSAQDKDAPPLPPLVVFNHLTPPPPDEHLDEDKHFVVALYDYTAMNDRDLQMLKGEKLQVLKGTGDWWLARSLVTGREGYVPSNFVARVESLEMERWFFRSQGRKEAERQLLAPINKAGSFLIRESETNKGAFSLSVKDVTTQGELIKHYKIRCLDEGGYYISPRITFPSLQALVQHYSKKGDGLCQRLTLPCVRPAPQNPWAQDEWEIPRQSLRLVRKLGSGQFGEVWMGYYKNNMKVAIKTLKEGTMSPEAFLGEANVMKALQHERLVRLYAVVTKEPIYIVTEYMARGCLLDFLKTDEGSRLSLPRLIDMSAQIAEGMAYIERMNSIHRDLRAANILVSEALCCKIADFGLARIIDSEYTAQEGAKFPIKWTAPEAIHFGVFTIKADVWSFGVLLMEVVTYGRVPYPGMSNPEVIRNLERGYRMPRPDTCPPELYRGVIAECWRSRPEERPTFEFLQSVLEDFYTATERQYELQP

C[C@@H]1CN(c2cc(-c3n[nH]c4ccc(OC5(C)CC5)cc34)ncn2)C[C@H](C)O1 [MLi-2]
inactive: [1] -7% | [2] 26% | [3] 8.15% | [4] 2.04% | [5] 2.98% | [6] -1% | [7] 12% | [8] 3.93% | [9] -8% | [10] 10.9% | [11] 6.43% | [12] -2% | [13] 1% | [14] 7.05%
